Experiments:
Format in all cases: in vivo
[1] = system: morningglory (Ipomoea spp.); assay: Test A pre-/postemergence plant response
Outline: (§1)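 Greenhouse trial, ~10 days. Soil (loam/sand) sprayed preemergence after seeding; emerged plants (1–2 leaf, 2–10 cm) sprayed postemergence in parallel. Response = visual injury vs untreated control, 0–100.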

corn (Zea mays) = assay: Test A pre-/postemergence plant response
Outline: as §1

[2] = system: velvetleaf (Abutilon theophrasti); assay: Test A pre-/postemergence plant response
Outline: as §1

[3] = system: giant foxtail (Setaria faberii); assay: Test A pre-/postemergence plant response
Outline: as §1

[4] = system: barnyardgrass (Echinochloa crus-galli); assay: Test A pre-/postemergence plant response
Outline: as §1

[5] = system: large crabgrass (Digitaria sanguinalis); assay: Test A pre-/postemergence plant response
Outline: as §1

[6] = system: pigweed (Amaranthus retroflexus); assay: Test A pre-/postemergence plant response
Outline: as §1

[7] = system: wheat (Triticum aestivum); assay: Test A pre-/postemergence plant response
Outline: as §1

rice (Oryza sativa) = assay: Test B flooded paddy test; conditions: for Plant response rating, Flood, Rice: 250 g ai/ha, flooded paddy test, visual rating on 0 to 100 scale (0 no effect, 100 complete control) after 13 to 15 days; for Plant response rating, Rice: Flood (flooded paddy test), 13 to 15 days
Outline: (§2)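 Greenhouse-held for 13 to 15 days, treated pots were compared visually with controls and scored 0–100 (0, no effect). Treatment had been made into paddy water kept at 3 cm above the soil, with plants at the 2-leaf stage.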

[8] = system: barnyardgrass (Echinochloa crus-galli); assay: Test B flooded paddy test; conditions: for Plant response rating, Flood, Barnyardgrass: 250 g ai/ha, flooded paddy test, visual rating on 0 to 100 scale (0 no effect, 100 complete control) after 13 to 15 days; for Plant response rating, Barnyardgrass: Flood (flooded paddy test), 13 to 15 days
Outline: as §2

[9] = system: ducksalad (Heteranthera limosa); assay: Test B flooded paddy test; conditions: for Plant response rating, Flood, Ducksalad: 250 g ai/ha, flooded paddy test, visual rating on 0 to 100 scale (0 no effect, 100 complete control) after 13 to 15 days; for Plant response rating, Ducksalad: Flood (flooded paddy test), 13 to 15 days
Outline: as §2

[10] = system: umbrella sedge (Cyperus difformis); assay: Test B flooded paddy test; conditions: for Plant response rating, Flood, Sedge, Umbrella: 250 g ai/ha, flooded paddy test, visual rating on 0 to 100 scale (0 no effect, 100 complete control) after 13 to 15 days; for Plant response rating, Sedge, Umbrella: Flood (flooded paddy test), 13 to 15 days
Outline: as §2

[11] = Postemergence, 125 g ai/ha, visual injury, 0 to 100 scale (0 no effect, 100 complete control), approx. ten days
[12] = Postemergence, 500 g ai/ha, 0 to 100 scale, 0 = no effect, 100 = complete control, approx. ten days
[13] = Preemergence, 125 g ai/ha, 0 to 100 scale, 0 = no effect, 100 = complete control
[14] = Preemergence, 500 g ai/ha, visual injury, 0 to 100 scale (0 no effect, 100 complete control), approx. ten days
[15] = 62 g ai/ha, scale 0 to 100, 0 is no effect, 100 is complete control
[16] = Postemergence, 500 g ai/ha, visual injury, 0 to 100 scale (0 no effect, 100 complete control), approx. ten days
[17] = Preemergence, 500 g ai/ha, 0 to 100 scale, 0 = no effect, 100 = complete control
[18] = Postemergence, 125 g ai/ha, 0 to 100 scale where 0 is no effect and 100 is complete control
[19] = 62 g ai/ha, scale of 0 to 100 where 0 is no effect and 100 is complete control
[20] = 125 g ai/ha, scale 0 to 100, 0 is no effect, 100 is complete control
[21] = Flood, 31 g ai/ha, scale 0 to 100 (0 no effect, 100 complete control)

Cc1ccc(-n2c(-c3ccccc3)ncc(C(=O)C3=C(O)CCCC3=O)c2=O)cc1C [Compound 32]
Morningglory plant response rating [1, 11]: 50 | Plant response rating, Morningglory [1, 12]: 100 | Plant response rating, Morningglory [1, 13]: 0 | Plant response rating, Morningglory [1, 14]: 80 | Corn plant response rating (corn (Zea mays); [11]): 0 | Plant response rating, Corn (corn (Zea mays); [12]): 10 | Plant response rating, Corn (corn (Zea mays); [13]): 0 | Plant response rating, Corn (corn (Zea mays); [14]): 0 | Velvetleaf plant response rating [2, 11]: 100 | Plant response rating, Velvetleaf [2, 12]: 100 | Plant response rating, Velvetleaf [2, 13]: 20 | Plant response rating, Velvetleaf [2, 14]: 70 | Foxtail, Giant plant response rating [3, 11]: 30 | Plant response rating, Foxtail, Giant [3, 12]: 90 | Plant response rating, Foxtail, Giant [3, 13]: 10 | Plant response rating, Foxtail, Giant [3, 14]: 90 | Barnyardgrass plant response rating [4, 11]: 20 | Plant response rating, Barnyardgrass [4, 12]: 80 | Plant response rating, Barnyardgrass [4, 13]: 0 | Plant response rating, Barnyardgrass [4, 14]: 90 | Crabgrass, Large plant response rating [5, 11]: 50 | Plant response rating, Crabgrass, Large [5, 12]: 90 | Plant response rating, Crabgrass, Large [5, 13]: 20 | Plant response rating, Crabgrass, Large [5, 14]: 90 | Pigweed plant response rating [6, 11]: 100 | Plant response rating, Pigweed [6, 12]: 100 | Plant response rating, Pigweed [6, 13]: 30 | Plant response rating, Pigweed [6, 14]: 100 | Wheat plant response rating [7, 11]: 0 | Plant response rating, Wheat [7, 12]: 30 | Plant response rating, Wheat [7, 13]: 0 | Plant response rating, Wheat [7, 14]: 20 | Plant response rating, Flood, Rice (rice (Oryza sativa)): 30 | Plant response rating, Rice (rice (Oryza sativa); [15]): 0 | Plant response rating, Flood, Barnyardgrass [8]: 40 | Plant response rating, Barnyardgrass [8, 15]: 10 | Plant response rating, Flood, Ducksalad [9]: 95 | Plant response rating, Ducksalad [9, 15]: 75 | Plant response rating, Flood, Sedge, Umbrella [10]: 90 | Plant response rating, Sedge, Umbrella [10, 15]: 75

Cc1cccc(-c2ncc(C(=O)C3=C(O)CCCC3=O)c(=O)n2-c2ccc(F)cc2C)c1 [Compound 192]
Morningglory plant response rating [1, 16]: 70 | Plant response rating, Morningglory [1, 13]: 0 | Plant response rating, Morningglory [1, 17]: 0 | Plant response rating, Corn (corn (Zea mays); [18]): 0 | Corn plant response rating (corn (Zea mays); [16]): 40 | Plant response rating, Corn (corn (Zea mays); [13]): 40 | Plant response rating, Corn (corn (Zea mays); [17]): 40 | Plant response rating, Velvetleaf [2, 18]: 70 | Velvetleaf plant response rating [2, 16]: 100 | Plant response rating, Velvetleaf [2, 13]: 0 | Plant response rating, Velvetleaf [2, 17]: 60 | Plant response rating, Foxtail, Giant [3, 18]: 50 | Foxtail, Giant plant response rating [3, 16]: 70 | Plant response rating, Foxtail, Giant [3, 13]: 0 | Plant response rating, Foxtail, Giant [3, 17]: 40 | Plant response rating, Barnyardgrass [4, 18]: 60 | Barnyardgrass plant response rating [4, 16]: 90 | Plant response rating, Barnyardgrass [4, 13]: 10 | Plant response rating, Barnyardgrass [4, 17]: 30 | Plant response rating, Crabgrass, Large [5, 18]: 30 | Crabgrass, Large plant response rating [5, 16]: 80 | Plant response rating, Crabgrass, Large [5, 13]: 10 | Plant response rating, Crabgrass, Large [5, 17]: 40 | Plant response rating, Pigweed [6, 18]: 60 | Pigweed plant response rating [6, 16]: 80 | Plant response rating, Pigweed [6, 13]: 0 | Plant response rating, Pigweed [6, 17]: 50 | Plant response rating, Wheat [7, 18]: 0 | Wheat plant response rating [7, 16]: 0 | Plant response rating, Wheat [7, 13]: 0 | Plant response rating, Wheat [7, 17]: 20 | Plant response rating, Flood, Rice (rice (Oryza sativa)): 20 | Plant response rating, Rice (rice (Oryza sativa); [19]): 0 | Plant response rating, Rice (rice (Oryza sativa); [20]): 0 | Rice plant response rating (rice (Oryza sativa); [21]): 0 | Plant response rating, Flood, Barnyardgrass [8]: 0 | Plant response rating, Barnyardgrass [8, 19]: 0 | Plant response rating, Barnyardgrass [8, 20]: 0 | Barnyardgrass plant response rating [8, 21]: 0 | Plant response rating, Flood, Ducksalad [9]: 75 | Plant response rating, Ducksalad [9, 19]: 60 | Plant response rating, Ducksalad [9, 20]: 75 | Ducksalad plant response rating [9, 21]: 60 | Plant response rating, Flood, Sedge, Umbrella [10]: 60 | Plant response rating, Sedge, Umbrella [10, 19]: 40 | Plant response rating, Sedge, Umbrella [10, 20]: 50 | Sedge, Umbrella plant response rating [10, 21]: 0

Cc1c(F)cccc1-n1c(-c2ccccc2)ncc(C(=O)C2=C(O)C3CCC(C3)C2=O)c1=O (stereo not drawn) [Compound 234]
Plant response rating, Morningglory [1, 18]: 100 | Morningglory plant response rating [1, 16]: 100 | Plant response rating, Morningglory [1, 17]: 10 | Plant response rating, Corn (corn (Zea mays); [18]): 20 | Corn plant response rating (corn (Zea mays); [16]): 50 | Plant response rating, Corn (corn (Zea mays); [13]): 0 | Plant response rating, Corn (corn (Zea mays); [17]): 20 | Plant response rating, Velvetleaf [2, 18]: 100 | Velvetleaf plant response rating [2, 16]: 100 | Plant response rating, Velvetleaf [2, 13]: 30 | Plant response rating, Velvetleaf [2, 17]: 90 | Plant response rating, Foxtail, Giant [3, 18]: 70 | Foxtail, Giant plant response rating [3, 16]: 90 | Plant response rating, Foxtail, Giant [3, 13]: 10 | Plant response rating, Foxtail, Giant [3, 17]: 60 | Plant response rating, Barnyardgrass [4, 18]: 80 | Barnyardgrass plant response rating [4, 16]: 100 | Plant response rating, Barnyardgrass [4, 13]: 0 | Plant response rating, Barnyardgrass [4, 17]: 80 | Plant response rating, Crabgrass, Large [5, 18]: 40 | Crabgrass, Large plant response rating [5, 16]: 90 | Plant response rating, Crabgrass, Large [5, 13]: 60 | Plant response rating, Crabgrass, Large [5, 17]: 90 | Plant response rating, Pigweed [6, 18]: 70 | Pigweed plant response rating [6, 16]: 90 | Plant response rating, Pigweed [6, 13]: 50 | Plant response rating, Pigweed [6, 17]: 60 | Plant response rating, Wheat [7, 18]: 0 | Wheat plant response rating [7, 16]: 20 | Plant response rating, Wheat [7, 13]: 0 | Plant response rating, Wheat [7, 17]: 20 | Plant response rating, Flood, Rice (rice (Oryza sativa)): 0 | Plant response rating, Rice (rice (Oryza sativa); [19]): 0 | Plant response rating, Flood, Barnyardgrass [8]: 0 | Plant response rating, Barnyardgrass [8, 19]: 0 | Plant response rating, Flood, Ducksalad [9]: 70 | Plant response rating, Ducksalad [9, 19]: 20 | Plant response rating, Flood, Sedge, Umbrella [10]: 40 | Plant response rating, Sedge, Umbrella [10, 19]: 0
